According to patent US12128035B2, “Activating pyruvate kinase R” (Novo Nordisk Health Care AG, priority 2021, dated 2024):

Test system: ATP blood levels
Assay: Phase 1 SAD/MAD: blood ATP (LC-MS/MS) in healthy volunteers
Type: in vivo, human
Conditions: for Median Percentage Change in ATP Levels / Mean Percentage Change in ATP Levels: HV 400 mg QD
Description: In this study, SAD/MAD cohorts are randomized (3 to 1) to receive Compound 1 or placebo (P). Compound 1 was evaluated first in 4 healthy SAD cohorts and 4 healthy MAD (14-day dosing period) cohorts. Based on the safety, and PK/PD profile from HS, Compound 1 is then evaluated in 1 SCD SAD cohort and 2 SCD MAD cohorts. Specifically, based on the safety and pharmacokinetic/pharmacodynamics (PK/PD) profile in healthy volunteer studies, Compound 1 is evaluated in patients (pts) with SCD, first in a single dose (SD or SAD) cohort and then in multiple-dose (MD or MAD) cohorts (14-day and 12-week). Safety assessments include AEs, vital signs, ECGs and laboratory parameters. PK/PD blood sampling was performed on Day 1 (SAD/MAD) and Day 14 (MAD) and up to 72 h after the last dose and at the end-of-study visit. PD parameters included 2,3-DPG, ATP, and p50 in all cohorts with additional PD studies (including oxygen scan) performed only in the SCD cohorts. PD parameters included 2,3-DPG, ATP, p50, RBC deformability with controlled deoxygenation and reoxygenation (Lorrca® oxygen scan) and varying osmolality (Lorrca® osmoscan)). To maintain study blind, pt identifiers were removed when needed.
In the MAD cohorts, the subjects' blood ATP levels were measured […] by a qualified LC-MS/MS method for the quantitation of ATP in blood. […] Table 20A reports the median percentage change in blood ATP levels, relative to baseline, measured over time after the first dose on days 1 and 14 in healthy volunteers who received daily doses of Compound 1 (100 mg BID, 200 mg BID, 300 mg BID, or 400 mg QD) or placebo for 14 days. Table 20B reports the mean percentage change in ATP blood levels, relative to baseline, measured over time after the first dose on days 1 and 14 in healthy volunteers who received daily doses of Compound 1 (100 mg BID, 200 mg BID, 300 mg BID, or 400 mg QD) for 14 days.
The following procedures are employed for the analysis of ATP and 2,3-DPG in human whole blood K2EDTA using a protein precipitation extraction procedure and analysis by LC-MS/MS.
The following procedures are used for sample extraction prior to analysis via LC-MS/MS. 15.0 μL of the calibration standards, quality controls, matrix blanks, and samples are aliquoted into a 96-well plate. 50.0 μL of the internal standard spiking solution is added to all samples on the plate, with the exception of the matrix blank samples; 50.0 μL of water is added to the matrix blank samples. Subsequently, 150 μL of water is added to all samples on the plate. The plate is then covered and agitated by vortex at high speed for ten minutes, after which 750 μL of methanol is added to all samples on the plate. The plate is covered and agitated by vortex for approximately 1 minute. The plate is then centrifuged at approximately 3500 RPM at approximately 4° C. for five minutes. After centrifugation, a liquid handler is used to transfer 50 μL of each sample to a new 96-well plate, and 200 μL of acetonitrile is added to all samples on the plate. The newly prepared plate is covered and agitated by vortex for approximately 1 minute. The plate is then centrifuged at approximately 3500 RPM at approximately 4° C. for 2 minutes.

[1] = Day 1, 24 h after first daily dose
[2] = Day 14, 0 h after first daily dose
[3] = Day 14, 6 h after first daily dose
[4] = Day 14, 8 h after first daily dose
[5] = Day 14, 12 h after first daily dose
[6] = Day 14, 16 h after first daily dose
[7] = Day 14, 24 h after first daily dose
[8] = Day 14, 48 h after first daily dose
[9] = Day 14, 72 h after first daily dose
[10] = HV single 200 mg, 0 h after dose
[11] = HV single 200 mg, 6 h after dose
[12] = HV single 200 mg, 8 h after dose
[13] = HV single 200 mg, 12 h after dose
[14] = HV single 200 mg, 16 h after dose
[15] = HV single 200 mg, 24 h after dose
[16] = HV single 200 mg, 36 h after dose
[17] = HV single 200 mg, 48 h after dose
[18] = HV single 200 mg, 72 h after dose
[19] = HV single 400 mg, 0 h after dose
[20] = HV single 400 mg, 6 h after dose
[21] = HV single 400 mg, 8 h after dose
[22] = HV single 400 mg, 12 h after dose
[23] = HV single 400 mg, 16 h after dose
[24] = HV single 400 mg, 24 h after dose
[25] = HV single 400 mg, 36 h after dose
[26] = HV single 400 mg, 48 h after dose
[27] = HV single 400 mg, 72 h after dose
[28] = HV single 700 mg, 0 h after dose
[29] = HV single 700 mg, 6 h after dose
[30] = HV single 700 mg, 8 h after dose
[31] = HV single 700 mg, 12 h after dose
[32] = HV single 700 mg, 16 h after dose
[33] = HV single 700 mg, 24 h after dose
[34] = HV single 700 mg, 36 h after dose
[35] = HV single 700 mg, 48 h after dose
[36] = HV single 700 mg, 72 h after dose
[37] = HV single 1000 mg, 0 h after dose
[38] = HV single 1000 mg, 6 h after dose
[39] = HV single 1000 mg, 8 h after dose
[40] = HV single 1000 mg, 12 h after dose
[41] = HV single 1000 mg, 16 h after dose
[42] = HV single 1000 mg, 24 h after dose
[43] = HV single 1000 mg, 36 h after dose
[44] = HV single 1000 mg, 48 h after dose
[45] = HV single 1000 mg, 72 h after dose

O=C([C@H](CO)c1ccccc1)N1CC2=C(C1)CN(S(=O)(=O)c1cnc3c(c1)OCCO3)C2 (single isomer, unassigned) [Compound 1]
Median Percentage Change in ATP Levels (Day 1, 16 h after first daily dose): −1.8% | Mean Percentage Change in ATP Levels [1]: 1.9% | Median Percentage Change in ATP Levels [1]: 0.0% | Mean Percentage Change in ATP Levels [2]: 54% | Median Percentage Change in ATP Levels [2]: 52% | Mean Percentage Change in ATP Levels [3]: 48% | Median Percentage Change in ATP Levels [3]: 52% | Mean Percentage Change in ATP Levels [4]: 51% | Median Percentage Change in ATP Levels [4]: 52% | Mean Percentage Change in ATP Levels [5]: 50% | Median Percentage Change in ATP Levels [5]: 56% | Mean Percentage Change in ATP Levels [6]: 51% | Median Percentage Change in ATP Levels [6]: 51% | Mean Percentage Change in ATP Levels [7]: 57% | Median Percentage Change in ATP Levels [7]: 52% | Mean Percentage Change in ATP Levels [8]: 60% | Median Percentage Change in ATP Levels [8]: 61% | Mean Percentage Change in ATP Levels [9]: 51% | Median Percentage Change in ATP Levels [9]: 54% | Mean Maximum Percent Change from Baseline, ATP (HV MAD, all doses and timepoints (N = 36)): 68.5% | Mean Maximum Percent Change from Baseline, ATP (HV SAD, all doses and timepoints (N = 24)): 24.4% | mean percentage change in ATP blood levels [10]: 0% | median percentage change in ATP blood levels [10]: 0% | mean percentage change in ATP blood levels [11]: 0.7% | median percentage change in ATP blood levels [11]: −4.5% | mean percentage change in ATP blood levels [12]: −2.1% | median percentage change in ATP blood levels [12]: −1.7% | mean percentage change in ATP blood levels [13]: 2.0% | median percentage change in ATP blood levels [13]: 1.7% | mean percentage change in ATP blood levels [14]: −6.9% | median percentage change in ATP blood levels [14]: −6.6% | mean percentage change in ATP blood levels [15]: 3.4% | median percentage change in ATP blood levels [15]: 4.7% | mean percentage change in ATP blood levels [16]: 6.2% | median percentage change in ATP blood levels [16]: 4.1% | mean percentage change in ATP blood levels [17]: 2.0% | median percentage change in ATP blood levels [17]: −2.4% | mean percentage change in ATP blood levels [18]: 12% | median percentage change in ATP blood levels [18]: 11% | mean percentage change in ATP blood levels [19]: 0% | median percentage change in ATP blood levels [19]: 0% | mean percentage change in ATP blood levels [20]: 2.2% | median percentage change in ATP blood levels [20]: 4.1% | mean percentage change in ATP blood levels [21]: −2.5% | median percentage change in ATP blood levels [21]: −8.8% | mean percentage change in ATP blood levels [22]: 5.6% | median percentage change in ATP blood levels [22]: 7.2% | mean percentage change in ATP blood levels [23]: 5.6% | median percentage change in ATP blood levels [23]: 4.5% | mean percentage change in ATP blood levels [24]: 15% | median percentage change in ATP blood levels [24]: 13% | mean percentage change in ATP blood levels [25]: 18% | median percentage change in ATP blood levels [25]: 16% | mean percentage change in ATP blood levels [26]: 14% | median percentage change in ATP blood levels [26]: 14% | mean percentage change in ATP blood levels [27]: 14% | median percentage change in ATP blood levels [27]: 18% | mean percentage change in ATP blood levels [28]: 0% | median percentage change in ATP blood levels [28]: 0% | mean percentage change in ATP blood levels [29]: −2.8% | median percentage change in ATP blood levels [29]: −2.6% | mean percentage change in ATP blood levels [30]: −2.9% | median percentage change in ATP blood levels [30]: −1.6% | mean percentage change in ATP blood levels [31]: −5.5% | median percentage change in ATP blood levels [31]: −5.4% | mean percentage change in ATP blood levels [32]: −1.3% | median percentage change in ATP blood levels [32]: −2.4% | mean percentage change in ATP blood levels [33]: 13% | median percentage change in ATP blood levels [33]: 12% | mean percentage change in ATP blood levels [34]: 4.5% | median percentage change in ATP blood levels [34]: 3.6% | mean percentage change in ATP blood levels [35]: 2.5% | median percentage change in ATP blood levels [35]: 0% | mean percentage change in ATP blood levels [36]: 10% | median percentage change in ATP blood levels [36]: 5.1% | mean percentage change in ATP blood levels [37]: 0% | median percentage change in ATP blood levels [37]: 0% | mean percentage change in ATP blood levels [38]: −1.7% | median percentage change in ATP blood levels [38]: 5.1% | mean percentage change in ATP blood levels [39]: 4.0% | median percentage change in ATP blood levels [39]: 3.1% | mean percentage change in ATP blood levels [40]: 2.9% | median percentage change in ATP blood levels [40]: 7.3% | mean percentage change in ATP blood levels [41]: 6.9% | median percentage change in ATP blood levels [41]: 2.4% | mean percentage change in ATP blood levels [42]: 12% | median percentage change in ATP blood levels [42]: 14% | mean percentage change in ATP blood levels [43]: 13% | median percentage change in ATP blood levels [43]: 16% | mean percentage change in ATP blood levels [44]: 14% | median percentage change in ATP blood levels [44]: 10% | mean percentage change in ATP blood levels [45]: 22% | median percentage change in ATP blood levels [45]: 20% | lag of maximum increase in blood ATP behind maximum plasma concentration (HV single 200, 400, 700 or 1000 mg): at least 24 hours
